Assay results published in PMC6021127 (Nature chemistry, 2017).
Read-outs that look alike come from different tables or passages of the source.

What was measured:
A2058 melanoma cell line = assay: Cytotoxicity against A2058 melanoma cells
[1] = system: DU145 prostate cancer cell line; assay: Cytotoxicity against DU145 prostate cancer cells
[2] = system: P388 murine leukemia cell lines; assay: Cytotoxicity against P388 murine leukemia cells
NCI 60 cell line panel = NCI 60 cell line panel evaluation; assay type: cell-based; conditions: read-out: mean GI50
[3] = Homo sapiens, A2058, read-out: Cytotoxicity IC50, A2058
[4] = Homo sapiens, DU-145, read-out: Cytotoxicity IC50, DU145
[5] = read-out: Cytotoxicity IC50, A2058, A2058 melanoma cells
[6] = read-out: Cytotoxicity IC50, DU145, DU145 prostate cancer cells
[7] = read-out: Cytotoxicity IC50, P388, P388 murine leukemia cells

SMILES	IC50 (A2058 melanoma cell line; [3]) [nM]	IC50 [1, 4] [nM]	IC50 (A2058 melanoma cell line; [5]) [nM]	IC50 [1, 6] [nM]	IC50 [2, 7] [nM]	other results
COC(=O)C[C@](O)(CCCC(C)(C)O)C(=O)O[C@@H]1C(OC)=C[C@]23CCCN2CCc2cc4c(cc2[C@H]13)OCO4 [compound 1, homoharringtonine, reference compound]	170	230				
C[C@@H]1C[C@@H]([C@H](O)CC2CC(=O)NC(=O)C2)C(=O)[C@@H](C)C1 [compound 2, cycloheximide, reference compound]	> 10000	> 10000				IC50 ([2]; Mus musculus, P388, read-out: Cytotoxicity IC50, P388): 5600 nM
C=C1[C@@H](O)C[C@H]2C(C)(C)C[C@H](Cl)C[C@]2(C)[C@H]1C[C@H](O)[C@H]1CC(=O)NC1=O [compound 3, chlorolissoclimide]	250	490				GI50 (NCI 60 cell line panel): 15 nM
C=C1[C@@H](O)C[C@H]2C(C)(C)[C@@H](Cl)[C@H](Cl)C[C@]2(C)[C@H]1C[C@H](O)[C@H]1CC(=O)NC1=O [compound 4, dichlorolissoclimide, reference compound]						IC50 ([2]; Mus musculus, P388, read-out: Cytotoxicity IC50 against P388): ~400 nM
C=C1[C@@H](OC(C)=O)C[C@H]2C(C)(C)C[C@H](Cl)C[C@]2(C)[C@H]1C[C@H](O)[C@H]1CC(=O)NC1=O [compound 7]			3460	460	2100	
C=C1[C@@H](O)C[C@H]2C(C)(C)CCC[C@]2(C)[C@H]1C[C@H](O)[C@H]1CC(=O)NC1=O [compound 8, haterumaimide Q]			2340	1490	200	
